We go through one compound from US20260248860A1, “LIVER DISEASE REGULATORY FORMULATION AND USE THEREOF” (SHANGHAI CELLIVER BIOTECHNOLOGY CO., LTD., priority 2021, published 2026).

The assay has as its system ConA-stimulated mouse spleen cells. Description: ConA-stimulated mouse spleen cell proliferation (CFSE, flow cytometry). To be noted: final concentration 10 nM, 72 hours, read-out: inhibition rate on the proliferation of spleen cells. In kind it is cell-based. On the procedure:
A method for preparing a suspension of mouse spleen cells added with a stimulator was: 1-week-old C57BL/6 mice were sacrificed by neck dislocation, then the spleen was taken, ground with a 200-mesh sieve, and then rinsed with a lymphatic separation fluid, and the separation solution containing lymphocytes was collected, resuspended by using a RPMI-1640 complete medium containing 10% fetal bovine serum and centrifuged under a centrifugal force of 800 g at low temperature for 30 minutes; and after completion of centrifugation, the lymphocyte layer was pipetted, then resuspended with a RPMI-1640 complete medium containing 10% fetal bovine serum, and then centrifuged under a centrifugal force of 250 g for 10 minutes at low temperature. The obtained lymphocyte layer was resuspended with the RPMI-1640 complete medium containing 10% fetal bovine serum again, and added with a concanavalin A(ConA) suspension resuspended with the RPMI-1640 complete medium containing 10% fetal bovine serum as a stimulator. […]
(In general: A flow cytometer gives signals particle by particle.)

Take `C=CC[C@@H]1/C=C(\C)C[C@H](C)C[C@H](OC)[C@H]2O[C@@](O)(C(=O)C(=O)N3CCCC[C@H]3C(=O)O[C@H](/C(C)=C/[C@@H]3CC[C@@H](O)[C@H](OC)C3)[C@H](C)[C@@H](O)CC1=O)[C@H](C)C[C@@H]2OC` [FK506, tacrolimus]: the inhibition at 0.01 µM was found to be 82%.
